Patent US11202836B2, “PSMA targeted conjugate compounds and uses thereof” (CASE WESTERN RESERVE UNIVERSITY, priority 2018, dated 2021)
“And” between values parts separate entries of the source, which are not always exact repeats. Equal values may be shown once. *1 amine or outer side, *2 acyl side, *3 side chain or, on linkers, in order; H or OH if unused. Where a SMILES comes first, the peptide text is derived from it. Bridges are numbered along the chain shown (N, C = ends). Roman numbers before positions name the chains, in order. [ ]: non-standard residue; d: D form. The star is where a group is joined. ξ: configuration not given here. X2 = CN1/C(=C/C=C/C=C/C2=[N+](CCCCCC(=O)*)c3ccc4ccccc4c3C2(C)C)C(C)(C)c2c1ccc1ccccc21; Hexanoyl(6-succinimido-3yl) = O=C1CC([*:1])C(=O)N1CCCCCC(=O)[*:2]; X3 = CC[C@H](C)[C@@H]([C@H](CC(=O)[*:2])OC)N(C)[*:1]; Dolaproine = CO[C@@H]([C@@H]1CCCN1)[C@@H](C)C(=O)O; Dil = CC[C@H](C)[C@H](NC)[C@@H](CC(=O)O)OC; PABC = O=C(OCc1ccc(N[*:1])cc1)[*:2]; ξγGlu = O=C(O)C(CCC(=O)[*:2])N[*:1]; X4 = C[C@@H](N*)[C@@H](O)c1ccccc1; X1 = O=C(C1CCC(CN[*:1])CC1)[*:2]; Cit = NC(=O)NCCC[C@H](N)C(=O)O; NMeV = CN[C@H](C(=O)O)C(C)C; ξE = NC(CCC(=O)O)C(=O)O; CO = O=C([*:1])[*:2]; ξK = NCCCCC(N)C(=O)O; Ahx = NCCCCCC(=O)O; ξC = NC(CS)C(=O)O

Columns and labels:
α-tubulin = experiment: Immunofluorescence analysis of alpha-tubulin in PC3pip and PC3flu cells; assay type: cell-based; settings: 5 nM, 24 hours
Protocol: Cells on coverslips at about 70% confluency were incubated with 5 nM of MMAE, PSMA-1-VcMMAE-Cy5.5 or PSMA-1-McMMAE-Cy5.5 for 24 hours. Cells were washed and fixed with 4% paraformaldehyde for 10 minutes, permeabilized with 0.1% Triton™ X-100 for 10 minutes, and blocked with 1% BSA for 1 hour at room temperature. Alpha-tubulin (B5-1-2) Alexa Fluor 488 Mouse Monoclonal Antibody (Invitrogen) was then added at 2 μg/mL in 0.1% BSA and incubated for 3 hours at room temperature. Cells were counterstained with DAPI, mounted with Fluor-Mount aqueous mounting solution, and observed under Leica DM4000B fluorescence microscopy at 40×.

[1] = test system: heterotopic PC3pip tumors; experiment: Heterotopic PC3pip tumor survival / antitumor study; assay type: in vivo; settings: for tumor growth: 160 nmol/kg i.v. every 4 days
Description: Male athymic nude mice were implanted subcutaneously with 1×10^6 of PC3pip cells under the right dorsum of the mice. When tumor size reached approximately 100 mm^3 (tumor volume=Length×width^2/2), mice received drugs through tail vein injection. […] Animals were weighed and tumor size measured every other day for 90 days. Cures were defined as no tumor present at end of the 90-day study. When tumors became too large or animals were moribund they were euthanized. Five mice were used in each group.

[2] = Maximum tolerated dose (single i.v. dose); assay type: in vivo, mice; settings: single dose i.v., tumor-free athymic nude mice, 14 days
Description: Mice were monitored daily for 14 days.

PC3pip cells = experiment: In vitro cytotoxicity assay (CCK-8, 72 h), PSMA-positive cells; assay type: cell-based
Protocol: Cells (1,000/well) were seeded in 96-well culture plates the day before treatment. Cells were incubated with various concentrations of drugs for 72 hours and cell viability evaluated by CCK-8 (Dojindo). The concentration required to reach 50% of cell proliferation was determined (IC50) by GraphPad Prism 3.0.

[3] = Stability of conjugates incubated in PBS without enzyme (HPLC); assay type: physicochemical; settings: no enzyme
Protocol: (§1) PSMA-1-VcMMAE-Cy5.5 or PSMA-1-McMMAE-Cy5.5 was added to 500 μL of activated human liver cathepsin B (Anthens Research and Technology) solution (46) to a final concentration of 2 μM and incubated at 37° C. At different time intervals, 40 μL of the solution was taken out into tubes loaded with 1 μL of 1 mM E64 protease inhibitor. The mixture was vortexed and then stored at −80° C. for future HPLC analysis to assess degradation of PSMA-1-VcMMAE-Cy5.5 or PSMA-1-McMMAE-Cy5.5. Studies were performed in triplicate.
To investigate if PSMA-targeted drug conjugates were cleavable by cathepsin B, the two conjugates were incubated with or without the enzyme and chromatographed by HPLC. When the conjugates were incubated with PBS, both PSMA-1-VcMMAE-Cy5.5 and PSMA-1-McMMAE-Cy5.5 were stable (FIG. 11D).

human liver cathepsin B = target: T1, human liver cathepsin B (Homo sapiens, UniProt P07858); experiment: Enzymatic cleavage by cathepsin B (HPLC); assay type: in vitro ADME; settings: 2 μM conjugate, 37° C.
T1 construct: purchased Anthens Research and Technology; host or cells: human liver (tissue-derived enzyme)
Protocol: as §1

cathepsin B = target: T2, cathepsin B (Homo sapiens, UniProt P07858); experiment: Enzymatic cleavage by cathepsin B (HPLC); assay type: in vitro ADME; settings: human, activated human liver cathepsin B solution; 2 μM conjugate, 37° C.; read-out: half-life in the presence of cathepsin B (converted)
T2 construct: purchased Anthens Research and Technology; host or cells: human liver (tissue-derived enzyme)
Protocol: as §1

orthotopic PC3pip tumors = experiment: Orthotopic PC3pip tumor survival study; assay type: in vivo, mice
Protocol: Surgical orthotopic tumor implantation was performed as previously reported. Tumor growth/size was monitored using Siemens Acuson […] ultrasound scanner. When the tumors were at the appropriate size (5 mm as measured by ultrasound, approximately 2 weeks) animals were given PSMA-1-VcMMAE, PSMA-1-VcMMAE-Cy5.5, or PBS every four days with a total of 5 doses. Tumors were monitored every other day by ultrasound. Each group had five mice.

PC3pip and PC3flu tumors = experiment: In vivo NIR imaging of mice bearing PC3pip and PC3flu tumors; settings: 40 nmol/kg i.v.
Protocol: Under guidelines of the animal care and use committee at Case Western Reserve University (IACUC #150033) 6 to 8-week old male Balb/cathymic nude mice were implanted subcutaneously with 1×10^6 of PC3flu and PC3pip on the left and right dorsum respectively. Mice received 40 nmol/kg of PSMA-1-VcMMAE-Cy5.5 or PSMA-1-McMMAE-Cy5.5 in PBS via tail vein injection when tumors reached 10 mm in diameter. Fluorescence imaging was performed using the Maestro In Vivo Imaging system (Perkin-Elmer). Multispectral images were unmixed into their component spectra (PSMA probes, autofluorescence, and background) to quantitate the average fluorescence intensity associated with the tumors using regions of interest (ROIs) around the tumors.

heterotopic C4-2 tumors = experiment: Heterotopic C4-2 tumor study; parameters: species or system mice; settings: mouse, in vivo
Description: To show versatility of the antitumor activity of PSMA-1-VcMMAE-Cy5.5, we tested it in mice bearing heterotopic C4-2 tumors, which are androgen-independent prostate cancer cells endogenously expressing PSMA.

metastatic PC3pip model = experiment: Metastatic PC3pip survival study (intracardiac GFP-PC3pip); assay type: in vivo, mice; settings: 160 nmol/kg every 4 days, 5 doses
Protocol: Male athymic nude mice were injected into the left ventricle of the heart with 1×10^5 GFP labeled PC3pip cells to generate bone metastasis. One week later mice received 160 nmol/kg PSMA-1-VcMMAE-Cy5.5 or PBS every 4 days with a total of 5 doses and the progression of disease was monitored by GFP imaging. Five mice were used in each group.

CC[C@H](C)[C@@H]([C@@H](CC(=O)N1CCC[C@H]1[C@H](OC)[C@@H](C)C(=O)N[C@H](C)[C@@H](O)c1ccccc1)OC)N(C)C(=O)[C@@H](NC(=O)[C@@H](NC)C(C)C)C(C)C [MMAE, monomethyl auristatin E, reference compound] (H-[NMeV]V[Dil][Dolaproine]-X4)
disruption of α-tubulin (α-tubulin): non-selective tubulin disruption | time by which all mice died ([1]; 160 nmol/kg): ≤ 36 days | tumor growth ([1]; 5 doses): relatively ineffective at inhibiting tumor growth | maximum tolerated dose (MTD) [2]: 700 nmol/kg | selectivity, differential cytotoxicity PC3pip vs PC3flu cells (PC3pip cells; 72 hours, PC3flu IC50 over PC3pip IC50): no selectivity

CC[C@H](C)[C@@H]([C@H](CC(=O)N1CCC[C@H]1[C@H](OC)[C@@H](C)C(=O)N[C@H](C)[C@@H](O)c1ccccc1)OC)N(C)C(=O)[C@@H](NC(=O)[C@H](C(C)C)N(C)C(=O)OCc1ccc(NC(=O)[C@H](CCCNC(N)=O)NC(=O)[C@@H](NC(=O)CCCCCN2C(=O)CC(SCC(NC(=O)C(CCC(=O)O)NC(=O)C(CCC(=O)O)NC(=O)C(CCC(=O)O)NC(=O)CCCCCNC(=O)C3CCC(CNC(=O)CCC(NC(=O)NC(CCC(=O)O)C(=O)O)C(=O)O)CC3)C(=O)NCCCCCC(=O)NC(CCCCNC(=O)CCCCC[N+]3=C(/C=C/C=C/C=C4/N(C)c5ccc6ccccc6c5C4(C)C)C(C)(C)c4c3ccc3ccccc43)C(N)=O)C2=O)C(C)C)cc1)C(C)C (stereo partly shown) [PSMA-1-VcMMAE-Cy5.5] (I: {ξE-CO-ξγGlu}-[X1][Ahx][ξE][ξE][ξE][ξC][Ahx][ξK](X2)-NH2 / II: V[Cit][PABC][NMeV]V[X3][Dolaproine]-X4; linker I:6-II:N via Hexanoyl(6-succinimido-3yl))
disruption of α-tubulin (α-tubulin): selective disruption of tubulin in PC3pip cells but not in PC3flu cells | stability when incubated with PBS [3]: stable | cleavage in the presence of cathepsin B (human liver cathepsin B): degraded rapidly | half-life at 2 μM (cathepsin B): 19.8 min | cure at day 90 (orthotopic PC3pip tumors; every four days, 5 doses): 40% | body weight loss (orthotopic PC3pip tumors; mouse, in vivo): No significant body weight loss | cure rate (no tumors at end of study) ([1]; 160 nmol/kg every 4 days, 5 doses, 90 days): 60% | tumor growth ([1]; 5 doses): effectively inhibited tumor growth as early as day 6 | tumor growth when given every 7 days ([1]; every 7 days, model not stated): greatly inhibited tumor growth | lowest dose effectively inhibiting tumor growth ([1]; mouse, in vivo): 80 nmol/kg | time of peak uptake in PC3pip tumors post-injection (PC3pip and PC3flu tumors): 24 h | cure rate (heterotopic C4-2 tumors): 40% | weight loss (heterotopic C4-2 tumors): no weight loss | MTD at 14 days ([2]; male, mouse, in vivo, iv): 0.48 µmol/kg | potency to kill PC3pip cells in the presence of PSMA-1 ligand (PC3pip cells; 10 μM of PSMA-1): reduced to the same potency to kill PC3flu cells | IC50 (PC3pip cells; 72 hours, CCK-8): 840 pM and 750 pM | effect of protease inhibitor E64 on cell killing potency (PC3pip cells; co-incubation with 50 μM E64): reduced the potency | animal survival (metastatic PC3pip model): all 5 treated mice survived the 90-day experimental period | body weight loss (metastatic PC3pip model): no significant body weight loss | response (no GFP signal) (metastatic PC3pip model): 100%
